Test results taken from US20120196824A1, “THERAPEUTIC AGENT FOR CEREBRAL INFARCTION” (MITSUBISHI TANABE PHARMA CORPORATION, priority 2009, published 2012).
Where a name gives a salt, the structure may show the parent alone.

Tests used:
homocysteine synthesis = assay: Measurement of homocysteine synthesis inhibitory activity in vivo (methionine-loaded mouse, plasma homocysteine); settings: dose of 10 mg/kg, oral, BALB/c mouse; methionine water 1 hr later; plasma 30 min after; read-out: activity (homocysteine synthesis inhibitory rate)
Description: A sample was orally administered to BALB/c mouse and, 1 hr later, methionine water (50 g/L) was orally administered at a proportion of 10 ml/kg. 30 min later, blood samples were collected with heparin from the abdominal vein and plasma was obtained. The plasma homocysteine concentration was measured by treating the plasma with tributylphosphine, removing protein with 10% trichloroacetic acid (TCA), fluorescent labeling the supernatant with 4-fluoro-7-sulfobenzofurazan ammonium salt (SBD-F) under alkali conditions, and quantifying by HPLC. The homocysteine synthesis inhibitory rate of the sample was determined with the difference in the homocysteine value between methionine water-loaded animal and methionine water-unloaded animal as 100%. The detailed conditions of HPLC were as follows.
column used: Wakopak^R HandyODS 150*4.6 mm (Wako Pure Chemical Industries, Ltd.) elution condition: 1.0 ml/min elution solvent: 0.1M phosphate buffer (pH 6.0) 2% methanol wavelength: ex 385 nm em 515 nm

[1] = molecular target: T1, Human-recombinant-S-Adenosyl-L-Homocysteine Hydrolase (Homo sapiens, UniProt P23526); assay: Measurement of enzyme inhibitory activity (hydrolysis of S-Adenosyl-L-Homocysteine, HPLC); type: biochemical; settings: S-Adenosyl-L-Homocysteine 10 μM, pH 7.2, 37° C., 15 min
T1 construct: purchased Diazyme Laboratories
Description: The enzyme inhibitory activity of the compounds of the Examples was measured using the hydrolysis activity of S-Adenosyl-L-Homocysteine as an index. The measurement method was modification of the method of Henry H. Richards et al. (J. Biol. Chem. 253, 4476-4480, 1978). That is, S-Adenosyl-L-Homocysteine (10 μM) and Adenosine Deaminase (Roche) (4 units) were added to 50 mM phosphate buffer (pH 7.2, containing 1 mM EDTA) with the total amount being 200 μl, and to the solution were added a test substance and then Human-recombinant-S-Adenosyl-L-Homocysteine Hydrolase (50 ng, Diazyme Laboratories) to start the reaction, and the mixture was incubated at 37° C. for 15 min. The reaction was quenched by the addition of 1N aqueous perchloric solution (20 μl), and the mixture was centrifuged under the conditions of 10000 rpm, 5 min, 4° C. The supernatant was collected, and the amount of S-Adenosyl-L-Homocysteine after the reaction was quantified by HPLC. The column used was a reversed-phase column. The detailed conditions of HPLC were as follows.
column used: Wakopak^R HandyODS 150*4.6 mm (Wako Pure Chemical Industries, Ltd.) elution condition: 1.0 ml/min elution solvent: 0.1M acetate buffer (pH 4.0) containing 10 mM 1-heptanesulfonic acid containing 4% acetonitrile wavelength: 258 nm (UV) The inhibitory rate was determined with the amount of decrease in S-Adenosyl-L-Homocysteine before and after the reaction without using the test substance as 100%.
Inhibitory rate (%)={(amount of decrease of S-Adenosyl-L-Homocysteine in the presence of test substance)/(amount of decrease of S-Adenosyl-L-Homocysteine in the absence of test substance)}×100

T1 sequence (P23526 whole entry): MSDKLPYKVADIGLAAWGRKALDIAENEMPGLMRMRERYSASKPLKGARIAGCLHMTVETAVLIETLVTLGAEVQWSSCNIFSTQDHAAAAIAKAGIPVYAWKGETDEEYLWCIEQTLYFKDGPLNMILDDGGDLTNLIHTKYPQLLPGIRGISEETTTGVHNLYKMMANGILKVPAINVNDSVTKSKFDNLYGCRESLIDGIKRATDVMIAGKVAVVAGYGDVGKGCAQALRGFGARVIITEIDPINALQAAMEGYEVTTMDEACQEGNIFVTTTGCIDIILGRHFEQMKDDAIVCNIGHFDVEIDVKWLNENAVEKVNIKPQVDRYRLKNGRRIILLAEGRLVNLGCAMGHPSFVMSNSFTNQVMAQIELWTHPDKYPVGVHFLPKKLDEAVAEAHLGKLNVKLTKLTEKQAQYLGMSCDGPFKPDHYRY

SMILES	IC50 [1] [nM]	inhibition in vivo at 10 mg/kg (homocysteine synthesis) [%]
CCNCCNC(=O)CN(CC(=O)N(C)N1Cc2ccccc2C1)c1cc(-c2nn(C)c(=O)o2)ccc1C [Example 89, N^2-{2-[1,3-dihydro-2H-isoindol-2-yl(methyl)amino]-2-oxoethyl}-N^2-[2-methyl-5-(4-methyl-5-oxo-4,5-dihydro-1,3,4-oxadiazol-2-yl)phenyl]-N^1-[2-(ethylamino)ethyl]glycinamide]	53	20 to 40
CCNCCNC(=O)CN(CC(=O)N(C)N1Cc2ccccc2C1)c1cc(-c2nn(CC)c(=O)o2)ccc1C [Example 92, N^2-{2-[1,3-dihydro-2H-isoindol-2-yl(methyl)amino]-2-oxoethyl}-N^2-[5-(4-ethyl-5-oxo-4,5-dihydro-1,3,4-oxadiazol-2-yl)-2-methylphenyl]-N^1-[2-(ethylamino)ethyl]glycinamide]	48	≥ 40
CCNCCNC(=O)CN(CC(=O)N(C)N1Cc2ccccc2C1)c1ccc(-c2cnn(C)c2)cc1C [Example 136, N^2-{2-[1,3-dihydro-2H-isoindol-2-yl(methyl)amino]-2-oxoethyl}-N^2-[2-methyl-4-(1-methyl-1H-pyrazol-4-yl)phenyl]-N^1-[2-(ethylamino)ethyl]glycinamide trihydrochloride]	–	≥ 40
CCN1C(=O)CCc2cc(N(CC(=O)NCCNC(C)C)CC(=O)N(C)N3Cc4ccccc4C3)c(C)cc21 [Example 176, N^2-{2-[1,3-dihydro-2H-isoindol-2-yl(methyl)amino]-2-oxoethyl}-N^2-(1-ethyl-7-methyl-2-oxo-1,2,3,4-tetrahydroquinolin-6-yl)-N^1-[2-(isopropylamino)ethyl]glycinamide]	63	≥ 40
CCNCCNC(=O)CN(CC(=O)N(C)N1Cc2ccc(F)cc2C1)c1cc2cn(C)nc2cc1C [Example 245, N^2-(2,6-dimethyl-2H-indazol-5-yl)-N^2-{2-[(5-fluoro-1,3-dihydro-2H-isoindol-2-yl)(methyl)amino]-2-oxoethyl}-N^1-[2-(ethylamino)ethyl]glycinamide hydrochloride]	–	20 to 40
CCNCCNC(=O)CN(CC(=O)N(C)N1Cc2ccc(F)cc2C1)c1cc2cn(CC(F)F)nc2cc1C [Example 254, N^2-[2-(2,2-difluoroethyl)-6-methyl-2H-indazol-5-yl]-N^2-{2-[(5-fluoro-1,3-dihydro-2H-isoindol-2-yl)(methyl)amino]-2-oxoethyl}-N^1-[2-(ethylamino)ethyl]glycinamide hydrochloride]	–	20 to 40
CCNCCNC(=O)CN(CC(=O)N(C)N1Cc2ccc(F)cc2C1)c1cc2nn(CC(F)F)cc2cc1C [Example 268, N^2-[2-(2,2-difluoroethyl)-5-methyl-2H-indazol-6-yl]-N^2-{2-[(5-fluoro-1,3-dihydro-2H-isoindol-2-yl)(methyl)amino]-2-oxoethyl}-N^1-[2-(ethylamino)ethyl]glycinamide hydrochloride]	–	< 20
CCNCCNC(=O)CN(CC(=O)N(C)N1Cc2ccc(F)cc2C1)c1cc(-c2noc(CO)n2)ccc1C [Example 292, N^2-{2-[(5-fluoro-1,3-dihydro-2H-isoindol-2-yl)(methyl)amino]-2-oxoethyl}-N^2-{5-[5-(hydroxymethyl)-1,2,4-oxadiazol-3-yl]-2-methylphenyl}-N^1-[2-(ethylamino)ethyl]glycinamide hydrochloride]	–	20 to 40
CCNCCNC(=O)CN(CC(=O)N(C)N1Cc2ccccc2C1)c1ccc(-c2nc(C(=O)N(C)C)cs2)cc1C [Example 304, N^2-{2-[1,3-dihydro-2H-isoindol-2-yl(methyl)amino]-2-oxoethyl}-N^2-[4-{4-[(dimethylamino)carbonyl]-1,3-thiazol-2-yl}-2-methylphenyl]-N^1-[2-(ethylamino)ethyl]glycinamide dihydrochloride]	–	≥ 40

Continued, in another order:

IC50 [1] [nM]	SMILES	inhibition in vivo at 10 mg/kg (homocysteine synthesis) [%]
68	Cc1ccc(C#N)cc1N(CC(=O)NCCNC(C)C)CC(=O)N(C)N1Cc2ccccc2C1 [Example 1, N^2-(5-cyano-2-methylphenyl)-N^2-{2-[1,3-dihydro-2H-isoindol-2-yl(methyl)amino]-2-oxoethyl}-N^1-[2-(isopropylamino)ethyl]glycinamide dihydrochloride]	≥ 40
92	CCNCCNC(=O)CN(CC(=O)N(C)N1Cc2ccccc2C1)c1cc(C#N)ccc1C [Example 2, N^2-(5-cyano-2-methylphenyl)-N^2-{2-[1,3-dihydro-2H-isoindol-2-yl(methyl)amino]-2-oxoethyl}-N^1-[2-(ethylamino)ethyl]glycinamide dihydrochloride]	≥ 40
89	Cc1nc(-c2ccc(C)c(N(CC(=O)NCCNC(C)C)CC(=O)N(C)N3Cc4ccc(F)cc4C3)c2)no1 [Example 21, N^2-{2-[(5-fluoro-1,3-dihydro-2H-isoindol-2-yl)(methyl)amino]-2-oxoethyl}-N^2-[2-methyl-5-(5-methyl-1,2,4-oxadiazol-3-yl)phenyl]-N^1-[2-(isopropylamino)ethyl]glycinamide]	≥ 40
46	CCNCCNC(=O)CN(CC(=O)N(C)N1Cc2ccc(OC)cc2C1)c1cc(-c2noc(C)n2)ccc1C [Example 24, N^2-{2-[(5-methoxy-1,3-dihydro-2H-isoindol-2-yl)(methyl)amino]-2-oxoethyl}-N^2-[2-methyl-5-(5-methyl-1,2,4-oxadiazol-3-yl)phenyl]-N^1-[2-(ethylamino)ethyl]glycinamide]	20 to 40
103	Cc1nc(-c2ccc(N(CC(=O)NCCNC(C)C)CC(=O)N(C)N3Cc4ccccc4C3)c(C)c2)no1 [Example 64, N^2-{2-[1,3-dihydro-2H-isoindol-2-yl(methyl)amino]-2-oxoethyl}-N^2-[2-methyl-4-(5-methyl-1,2,4-oxadiazol-3-yl)phenyl]-N^1-[2-(isopropylamino)ethyl]glycinamide]	≥ 40
43	Cc1ccc(-c2nn(C)c(=O)o2)cc1N(CC(=O)NCCNC(C)C)CC(=O)N(C)N1Cc2ccccc2C1 [Example 88, N^2-{2-[1,3-dihydro-2H-isoindol-2-yl(methyl)amino]-2-oxoethyl}-N^2-[2-methyl-5-(4-methyl-5-oxo-4,5-dihydro-1,3,4-oxadiazol-2-yl)phenyl]-N^1-[2-(isopropylamino)ethyl]glycinamide]	20 to 40
37	Cc1cc2c(C)noc2cc1N(CC(=O)NCCNC(C)C)CC(=O)N(C)N1Cc2ccccc2C1 [Example 184, N^2-{2-[1,3-dihydro-2H-isoindol-2-yl(methyl)amino]-2-oxoethyl}-N^2-(3,5-dimethyl-1,2-benzisoxazol-6-yl)-N^1-[2-(isopropylamino)ethyl]glycinamide]	≥ 40
8	CCNCCNC(=O)CN(CC(=O)N(C)N1Cc2ccccc2C1)c1cc2onc(C)c2cc1C [Example 185, N^2-{2-[1,3-dihydro-2H-isoindol-2-yl(methyl)amino]-2-oxoethyl}-N^2-(3,5-dimethyl-1,2-benzisoxazol-6-yl)-N^1-[2-(ethylamino)ethyl]glycinamide]	≥ 40
35	CCNCCNC(=O)CN(CC(=O)N(C)N1Cc2ccccc2C1)c1ccc(-c2nc(C)no2)cc1C [Example 229, N^2-{2-[1,3-dihydro-2H-isoindol-2-yl(methyl)amino]-2-oxoethyl}-N^2-[2-methyl-4-(3-methyl-1,2,4-oxadiazol-5-yl)phenyl]-N^1-[2-(ethylamino)ethyl]glycinamide]	≥ 40
9	CCNCCNC(=O)CN(CC(=O)N(C)N1Cc2ccccc2C1)c1cc2cnn(C)c2cc1C [Example 241, N^2-{2-[1,3-dihydro-2H-isoindol-2-yl(methyl)amino]-2-oxoethyl}-N^2-(1,6-dimethyl-1H-indazol-5-yl)-N^1-[2-(ethylamino)ethyl]glycinamide hydrochloride]	≥ 40
